Source: BigSolDB 2.1

COc1cc([N+](=O)[O-])ccc1N
solubility (mole fraction)
Conditions	278.15 K	283.15 K	288.15 K	293.15 K	298.15 K	303.15 K	308.15 K	313.15 K	318.15 K	323.15 K
in 1,4-dioxane	–	–	0.0402	0.0468	0.0556	0.0652	0.0775	0.0925	0.111	0.133
in DMSO	–	–	–	0.235	0.249	0.264	0.281	0.3	0.321	0.344
in NMP	0.256	0.272	0.287	0.303	0.321	0.339	0.359	0.38	0.402	0.426
in acetonitrile	0.0118	0.0141	0.0175	0.0213	0.0269	0.0345	0.0433	0.0547	0.0683	0.0872
in ethanol	0.00263	0.00307	0.00363	0.00438	0.00534	0.00636	0.0078	0.00978	0.0121	0.015
in ethyl acetate	0.0186	0.0227	0.0269	0.0326	0.0398	0.0486	0.0596	0.0716	0.0854	0.103
in ethylene glycol	0.0017	0.00201	0.00243	0.00284	0.00345	0.00424	0.00527	0.00643	0.00796	0.00973
in methanol	0.00238	0.0028	0.00333	0.00392	0.00466	0.00565	0.00682	0.00844	0.0104	0.0129
in n-butanol	0.00135	0.00166	0.00202	0.00248	0.00304	0.00371	0.00457	0.0057	0.0072	0.00886
in n-propanol	0.00199	0.00239	0.0029	0.0035	0.00423	0.00512	0.00616	0.00738	0.00876	0.0104
in water	4e-06	6e-06	7e-06	9e-06	1.3e-05	1.7e-05	2.4e-05	3.2e-05	4.2e-05	5.5e-05
